According to ChEMBL document CHEMBL1140355, “New HIV-1 replication inhibitors of the styryquinoline class bearing aroyl/acyl groups at the C-7 position: synthesis and biological activity” (Bioorg Med Chem Lett, 2005):

How the values were obtained:
[1] = Toxicity towards CEM cells determined by standard MTT assay, expressed as concentration required for the survival of 50% cells; format: cell-based; conditions: human, CEM cells (CCRF-CEM cell line); read-out: TC50 (the source's name)
[2] = tested on: Human immunodeficiency virus 1; assay: Antiviral activity against human immunodeficiency virus type 1 by using MAGI assay; format: functional, organism-based; conditions: Human immunodeficiency virus 1, MAGI
[3] = tested on: Human immunodeficiency virus 1; assay: Antiviral activity against human immunodeficiency virus type 1 by using MAGI assay; NR = not reached; format: functional, organism-based

Row | SMILES | IC50 [2] | IC50 [3] | CC50 [1]
1 | O=C(O)c1cccc(C(=O)c2ccc3ccc(/C=C/c4ccc(O)c(O)c4)nc3c2O)c1 | 63 µM | – | > 100 µM
2 | O=C(O)c1ccc2ccc(/C=C/c3ccc(O)c(O)c3)nc2c1O | – | – | > 100 µM
3 | O=C(CCc1ccccc1)c1ccc2ccc(/C=C/c3ccc(O)c(O)c3)nc2c1O | 2 µM | – | 7 µM
4 | O=C(c1ccccc1[N+](=O)[O-])c1ccc2ccc(/C=C/c3ccc(O)c(O)c3)nc2c1O | 4 µM | – | 70 µM
5 | O=C(c1ccccn1)c1ccc2ccc(/C=C/c3ccc(O)c(O)c3)nc2c1O | – | Not reached | 15 µM
6 | CCCCCCCCC(=O)c1ccc2ccc(/C=C/c3ccc(O)c(O)c3)nc2c1O | 5 µM | – | 10 µM
7 | O=C(c1cccc([N+](=O)[O-])c1)c1ccc2ccc(/C=C/c3ccc(O)c(O)c3)nc2c1O | 0.5 µM | – | 1.5 µM
8 | Cc1cc(C(=O)c2ccc3ccc(/C=C/c4ccc(O)c(O)c4)nc3c2O)ccc1[N+](=O)[O-] | 60 µM | – | 90 µM
9 | O=C(O)c1ccccc1C(=O)c1ccc2ccc(/C=C/c3ccc(O)c(O)c3)nc2c1O | 35 µM | – | > 100 µM
10 | O=C(c1cccnc1)c1ccc2ccc(/C=C/c3ccc(O)c(O)c3)nc2c1O | 2 µM | – | > 100 µM
11 | O=C(c1ccc(F)c(F)c1)c1ccc2ccc(/C=C/c3ccc(O)c(O)c3)nc2c1O | 4 µM | – | 63 µM
12 | O=C(c1ccc2ccc(/C=C/c3ccc(O)c(O)c3)nc2c1O)c1cccc2ccccc12 | – | Not reached | 1 µM

The next lines start with results.

Row | IC50 [2] | IC50 [3] | SMILES | CC50 [1]
13 | 6 µM | – | O=C(c1ccc(O)cc1)c1ccc2ccc(/C=C/c3ccc(O)c(O)c3)nc2c1O | 87 µM
14 | 2 µM | – | O=C(c1ccc([N+](=O)[O-])cc1)c1ccc2ccc(/C=C/c3ccc(O)c(O)c3)nc2c1O | 60 µM
15 | – | Not reached | O=C(c1ccccc1O)c1ccc2ccc(/C=C/c3ccc(O)c(O)c3)nc2c1O | 1 µM
16 | 40 µM | – | O=C(O)c1ccc(C(=O)c2ccc3ccc(/C=C/c4ccc(O)c(O)c4)nc3c2O)cc1 | 80 µM
17 | – | Not reached | O=C(c1ccccc1)c1ccc2ccc(/C=C/c3ccc(O)c(O)c3)nc2c1O | 3 µM
18 | – | Not reached | O=C(c1ccncc1)c1ccc2ccc(/C=C/c3ccc(O)c(O)c3)nc2c1O | 4 µM
